Laboratory results published in US8959984B2, “Proteome-wide quantification of small molecule binding to cellular target proteins” (priority 2007, dated 2015).
Like-named read-outs stand apart in the source and are kept apart here.

Tests used:
[1] = biological target: ROCK2 (Homo sapiens, UniProt O75116); experiment: binding to immobilized V16742 (IVA1/IVA2, HeLa lysate, MS)
[2] = biological target: T1, CDK7 (Homo sapiens, UniProt P50613); experiment: as above
T1 construct: endogenous in cells; host or cells: HeLa S3

[3] = biological target: T2, BUB1 (Homo sapiens, UniProt O43683); experiment: as above
T2 construct: endogenous in cells; host or cells: HeLa S3

[4] = biological target: T3, ADK (IPI00290279) (Homo sapiens, UniProt P55263); experiment: binding to VI16742 beads (HeLa lysate, SILAC MS)
T3 construct: endogenous in cells; host or cells: HeLa S3 cell lysate

[5] = biological target: T4, EphB2 (Homo sapiens, UniProt P29323); experiment: binding to immobilized V16742 (IVA1/IVA2, HeLa lysate, MS)
T4 sequence (P29323 19-1055): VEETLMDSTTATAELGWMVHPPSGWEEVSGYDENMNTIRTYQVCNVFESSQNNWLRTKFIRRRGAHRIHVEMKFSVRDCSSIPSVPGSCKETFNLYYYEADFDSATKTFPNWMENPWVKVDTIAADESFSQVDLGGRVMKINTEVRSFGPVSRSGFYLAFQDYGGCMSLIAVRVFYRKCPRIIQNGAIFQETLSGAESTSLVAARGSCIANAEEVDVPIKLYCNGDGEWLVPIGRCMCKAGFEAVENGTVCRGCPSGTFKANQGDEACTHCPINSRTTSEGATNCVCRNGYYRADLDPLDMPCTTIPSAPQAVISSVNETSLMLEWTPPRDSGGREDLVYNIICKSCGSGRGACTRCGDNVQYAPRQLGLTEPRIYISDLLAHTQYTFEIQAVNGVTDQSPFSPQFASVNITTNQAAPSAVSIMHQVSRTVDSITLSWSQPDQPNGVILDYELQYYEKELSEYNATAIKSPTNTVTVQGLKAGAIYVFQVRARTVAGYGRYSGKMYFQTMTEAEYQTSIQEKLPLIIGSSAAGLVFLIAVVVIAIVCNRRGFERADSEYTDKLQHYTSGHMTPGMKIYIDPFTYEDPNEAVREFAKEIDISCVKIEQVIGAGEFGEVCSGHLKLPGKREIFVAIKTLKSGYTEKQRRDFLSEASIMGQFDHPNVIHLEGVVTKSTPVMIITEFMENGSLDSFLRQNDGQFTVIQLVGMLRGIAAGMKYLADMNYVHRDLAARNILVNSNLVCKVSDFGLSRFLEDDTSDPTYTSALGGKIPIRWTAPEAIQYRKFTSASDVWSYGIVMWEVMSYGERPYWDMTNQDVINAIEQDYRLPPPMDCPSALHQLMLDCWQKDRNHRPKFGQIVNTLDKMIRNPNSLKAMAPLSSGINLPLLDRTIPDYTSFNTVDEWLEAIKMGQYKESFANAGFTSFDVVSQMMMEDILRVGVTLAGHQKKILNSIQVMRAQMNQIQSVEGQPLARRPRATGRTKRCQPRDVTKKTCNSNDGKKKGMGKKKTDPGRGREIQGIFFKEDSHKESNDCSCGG

[6] = biological target: T5, BLMH (Homo sapiens, UniProt Q13867); experiment: gefitinib competition against AX14596 beads (HeLa lysate, SILAC MS); format: binding
T5 construct: endogenous in cells; host or cells: HeLa S3
T5 sequence (Q13867 1-455): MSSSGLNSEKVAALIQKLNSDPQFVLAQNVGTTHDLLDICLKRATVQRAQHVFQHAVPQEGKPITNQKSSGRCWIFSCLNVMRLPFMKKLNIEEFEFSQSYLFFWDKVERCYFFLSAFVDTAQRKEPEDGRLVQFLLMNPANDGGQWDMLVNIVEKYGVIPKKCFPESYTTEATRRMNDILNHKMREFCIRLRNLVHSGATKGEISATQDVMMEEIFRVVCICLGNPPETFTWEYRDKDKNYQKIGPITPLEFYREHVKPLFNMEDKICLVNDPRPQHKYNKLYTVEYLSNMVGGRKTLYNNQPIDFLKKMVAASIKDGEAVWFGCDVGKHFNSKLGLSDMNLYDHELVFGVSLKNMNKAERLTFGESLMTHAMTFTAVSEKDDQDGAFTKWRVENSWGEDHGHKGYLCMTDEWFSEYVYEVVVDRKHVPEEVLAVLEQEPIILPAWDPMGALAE

[7] = biological target: T6, ALK2 (ACVR1) (Homo sapiens, UniProt Q04771)
T6 sequence (Q04771 21-509): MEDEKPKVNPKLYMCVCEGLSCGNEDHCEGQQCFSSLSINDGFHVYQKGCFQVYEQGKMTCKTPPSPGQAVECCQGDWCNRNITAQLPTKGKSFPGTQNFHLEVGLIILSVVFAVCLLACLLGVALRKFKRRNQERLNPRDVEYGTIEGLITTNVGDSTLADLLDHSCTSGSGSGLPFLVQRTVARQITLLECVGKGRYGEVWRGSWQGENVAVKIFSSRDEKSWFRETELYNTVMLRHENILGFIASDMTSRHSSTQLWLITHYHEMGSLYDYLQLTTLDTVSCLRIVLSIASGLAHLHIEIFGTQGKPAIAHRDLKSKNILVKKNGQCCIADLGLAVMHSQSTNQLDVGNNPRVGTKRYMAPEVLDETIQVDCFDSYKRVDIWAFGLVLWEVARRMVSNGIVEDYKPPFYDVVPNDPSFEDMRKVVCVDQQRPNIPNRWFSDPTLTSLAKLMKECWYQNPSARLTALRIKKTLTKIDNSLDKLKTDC

[8] = biological target: SPR (Homo sapiens, UniProt P35270)
SPR, sequence (P35270 whole entry): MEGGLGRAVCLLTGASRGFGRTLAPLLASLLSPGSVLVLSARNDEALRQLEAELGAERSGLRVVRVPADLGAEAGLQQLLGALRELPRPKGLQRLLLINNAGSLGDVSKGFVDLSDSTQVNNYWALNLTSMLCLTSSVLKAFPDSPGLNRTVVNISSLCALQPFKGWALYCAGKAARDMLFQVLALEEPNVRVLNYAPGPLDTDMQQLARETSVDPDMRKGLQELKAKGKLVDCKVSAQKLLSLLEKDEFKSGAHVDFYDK

T1 sequence (P50613 whole entry): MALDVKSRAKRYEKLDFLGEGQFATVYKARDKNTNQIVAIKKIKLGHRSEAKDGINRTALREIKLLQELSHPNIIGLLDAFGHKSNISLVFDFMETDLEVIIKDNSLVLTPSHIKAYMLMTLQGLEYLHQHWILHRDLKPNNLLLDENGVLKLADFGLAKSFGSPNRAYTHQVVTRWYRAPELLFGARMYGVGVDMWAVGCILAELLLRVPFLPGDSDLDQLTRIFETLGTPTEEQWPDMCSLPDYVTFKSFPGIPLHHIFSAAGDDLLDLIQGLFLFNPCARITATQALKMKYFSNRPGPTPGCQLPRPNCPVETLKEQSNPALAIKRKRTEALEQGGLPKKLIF
T3 sequence (P55263 whole entry): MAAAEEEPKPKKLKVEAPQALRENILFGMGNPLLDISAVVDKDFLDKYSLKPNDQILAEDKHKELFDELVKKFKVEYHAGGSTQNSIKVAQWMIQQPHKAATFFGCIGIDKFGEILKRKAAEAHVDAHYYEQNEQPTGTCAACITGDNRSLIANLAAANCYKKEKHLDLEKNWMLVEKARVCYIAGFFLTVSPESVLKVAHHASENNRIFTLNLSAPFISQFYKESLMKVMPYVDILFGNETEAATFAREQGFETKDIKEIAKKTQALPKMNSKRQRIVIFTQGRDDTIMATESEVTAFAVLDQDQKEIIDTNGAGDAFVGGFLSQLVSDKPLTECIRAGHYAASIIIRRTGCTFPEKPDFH
T2 sequence (O43683 whole entry): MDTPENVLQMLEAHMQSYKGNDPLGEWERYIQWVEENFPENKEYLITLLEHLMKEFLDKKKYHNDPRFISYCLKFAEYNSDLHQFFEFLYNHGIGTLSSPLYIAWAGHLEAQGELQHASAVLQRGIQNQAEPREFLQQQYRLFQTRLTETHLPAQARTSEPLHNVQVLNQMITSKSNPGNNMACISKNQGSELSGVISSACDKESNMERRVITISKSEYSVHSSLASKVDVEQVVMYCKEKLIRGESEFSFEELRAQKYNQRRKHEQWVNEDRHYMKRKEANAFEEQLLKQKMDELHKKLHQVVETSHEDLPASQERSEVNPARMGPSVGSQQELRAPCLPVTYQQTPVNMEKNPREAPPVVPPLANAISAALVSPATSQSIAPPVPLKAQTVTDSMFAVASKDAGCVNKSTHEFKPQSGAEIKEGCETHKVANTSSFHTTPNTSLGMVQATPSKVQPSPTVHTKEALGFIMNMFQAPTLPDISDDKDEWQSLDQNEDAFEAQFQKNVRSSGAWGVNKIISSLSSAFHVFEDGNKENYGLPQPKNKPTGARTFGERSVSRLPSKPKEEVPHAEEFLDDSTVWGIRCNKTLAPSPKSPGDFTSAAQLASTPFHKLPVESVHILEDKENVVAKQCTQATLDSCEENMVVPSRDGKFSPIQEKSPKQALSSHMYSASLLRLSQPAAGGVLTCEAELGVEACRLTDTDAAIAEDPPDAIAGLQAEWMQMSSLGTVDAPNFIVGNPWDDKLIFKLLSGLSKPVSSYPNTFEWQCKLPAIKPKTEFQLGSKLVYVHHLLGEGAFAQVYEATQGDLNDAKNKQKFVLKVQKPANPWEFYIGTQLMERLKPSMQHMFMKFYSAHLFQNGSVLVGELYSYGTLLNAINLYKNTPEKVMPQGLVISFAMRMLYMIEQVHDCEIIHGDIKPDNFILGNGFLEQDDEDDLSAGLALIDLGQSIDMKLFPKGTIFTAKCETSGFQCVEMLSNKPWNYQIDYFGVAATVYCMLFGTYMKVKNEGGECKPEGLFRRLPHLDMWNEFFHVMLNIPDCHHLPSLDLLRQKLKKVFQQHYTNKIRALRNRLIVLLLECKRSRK
ROCK2, sequence (O75116 whole entry): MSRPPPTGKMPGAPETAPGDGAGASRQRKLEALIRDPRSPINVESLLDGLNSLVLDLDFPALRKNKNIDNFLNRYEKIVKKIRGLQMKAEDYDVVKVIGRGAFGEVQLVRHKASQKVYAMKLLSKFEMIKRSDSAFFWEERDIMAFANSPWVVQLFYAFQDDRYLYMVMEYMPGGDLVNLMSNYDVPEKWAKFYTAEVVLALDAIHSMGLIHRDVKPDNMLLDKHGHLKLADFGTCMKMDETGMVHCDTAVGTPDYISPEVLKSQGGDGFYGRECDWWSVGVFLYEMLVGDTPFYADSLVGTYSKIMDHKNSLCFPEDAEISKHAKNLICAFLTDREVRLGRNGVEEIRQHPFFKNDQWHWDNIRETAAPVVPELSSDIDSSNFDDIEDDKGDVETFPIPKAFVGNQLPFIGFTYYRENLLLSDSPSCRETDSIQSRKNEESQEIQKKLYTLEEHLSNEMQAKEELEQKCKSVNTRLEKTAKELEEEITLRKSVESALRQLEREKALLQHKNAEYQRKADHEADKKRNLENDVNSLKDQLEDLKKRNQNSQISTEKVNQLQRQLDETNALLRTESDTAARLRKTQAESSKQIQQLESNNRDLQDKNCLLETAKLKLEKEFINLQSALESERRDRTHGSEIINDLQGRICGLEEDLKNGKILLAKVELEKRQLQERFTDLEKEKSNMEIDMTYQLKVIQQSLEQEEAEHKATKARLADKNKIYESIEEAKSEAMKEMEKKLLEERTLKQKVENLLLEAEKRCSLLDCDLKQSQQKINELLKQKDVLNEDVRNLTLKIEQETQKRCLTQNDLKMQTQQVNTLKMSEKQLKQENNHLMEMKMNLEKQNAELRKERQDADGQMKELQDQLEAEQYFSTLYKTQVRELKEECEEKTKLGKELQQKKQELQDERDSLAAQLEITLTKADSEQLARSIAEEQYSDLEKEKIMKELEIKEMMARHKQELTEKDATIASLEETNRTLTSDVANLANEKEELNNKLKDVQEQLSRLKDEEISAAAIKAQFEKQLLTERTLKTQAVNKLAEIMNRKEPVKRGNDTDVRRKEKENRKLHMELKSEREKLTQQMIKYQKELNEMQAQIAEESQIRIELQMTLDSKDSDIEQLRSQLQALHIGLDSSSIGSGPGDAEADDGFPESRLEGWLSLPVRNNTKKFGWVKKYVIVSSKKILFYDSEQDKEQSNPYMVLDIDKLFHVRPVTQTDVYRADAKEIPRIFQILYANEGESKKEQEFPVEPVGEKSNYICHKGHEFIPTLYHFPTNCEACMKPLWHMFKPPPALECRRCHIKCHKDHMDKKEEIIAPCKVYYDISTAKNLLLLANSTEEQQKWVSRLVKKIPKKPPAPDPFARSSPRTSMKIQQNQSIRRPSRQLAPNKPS

CC(C)n1c(=O)ccc2cnc(Nc3ccc(OCCN)cc3)nc21 [V16742]
affinity class of target for V16742 [1]: Very low affinity target not significantly enriched in IVA2
Percent bound at various 16742 conc ([2]; Experiment 1, 1.87 μM 16742): 5.76%
Percent bound at various 16742 conc ([2]; Experiment 1, 8.74 μM 16742): 22.04%
Percent bound at various 16742 conc ([2]; Experiment 1, 52 μM 16742): 53.96%
Kd ([2]; Experiment 1, read-out: Kd): 39.8 µM
Percent bound at various 16742 conc ([2]; Experiment 2, 1.87 μM 16742): 2.34%
Percent bound at various 16742 conc ([2]; Experiment 2, 8.74 μM 16742): 13.18%
Percent bound at various 16742 conc ([2]; Experiment 2, 52 μM 16742): 45.57%
Kd ([2]; Experiment 2, read-out: Kd): 61.5 µM
Kd ([2]; average of two experiments, read-out: Kd Avg): 50.7 µM
Percent bound at various 16742 conc ([3]; Experiment 1, 1.87 μM 16742): 2.46%
Percent bound at various 16742 conc ([3]; Experiment 1, 8.74 μM 16742): 11.95%
Percent bound at various 16742 conc ([3]; Experiment 1, 52 μM 16742): 50.46%
Percent bound at various 16742 conc ([3]; Experiment 2, 52 μM 16742): 47.87%
Kd ([3]; single Kd value, obtained from only one experiment): 53.4 µM
r (5 h/2.5 h INC. TIME) ([4]; 5 h vs 2.5 h incubation time): 1.63
rAVERAGE (CTRL/1 INC) ([4]; control beads vs first incubation): 0.05
Ki ([4]; immobilized VI16742): 94.2 µM
rAVERAGE (2 INC/1 INC) ([4]; second vs first incubation): 0.64

CC(C)n1c(=O)ccc2cnc(Nc3ccc(OCCN)cc3)nc21 [compound 16742]
Percent bound at 1.87 μM 16742 conc ([5]; EXPERIMENT 1): 4.79%
Percent bound at 8.74 μM 16742 conc ([5]; EXPERIMENT 1): 17.01%
Percent bound at 52 μM 16742 conc ([5]; EXPERIMENT 1): 66.97%
Kd ([5]; EXPERIMENT 1, read-out: Kd): 30.6 µM
Percent bound at 1.87 μM 16742 conc ([5]; EXPERIMENT 2): 2.86%
Percent bound at 8.74 μM 16742 conc ([5]; EXPERIMENT 2): 13.05%
Percent bound at 52 μM 16742 conc ([5]; EXPERIMENT 2): 57.74%
Kd ([5]; EXPERIMENT 2, read-out: Kd): 42.3 µM
Kd ([5]; read-out: Kd Avg): 36.5 µM

COc1cc2ncnc(Nc3ccc(F)c(Cl)c3)c2cc1OCCCN1CCOCC1 [gefitinib]
IC50 [6]: 0.223 µM
rAVERAGE (10 nM/0 nM Gef.) [6]: 0.82
rAVERAGE (100 nM/0 nM Gef.) [6]: 0.53
rAVERAGE (1000 nM/0 nM Gef.) [6]: 0.43
rAVERAGE (10000 nM/0 nM Gef.) [6]: 0.11
Ki ([6]; read-out: Ki (Gef)): 0.0779 µM
rAVERAGE (10 nM/0 nM Gef.) [7]: 0.76
rAVERAGE (100 nM/0 nM Gef.) [7]: 1.25
rAVERAGE (1000 nM/0 nM Gef.) [7]: 0.77
rAVERAGE (10000 nM/0 nM Gef.) [7]: 0.85
rAVERAGE (10 nM/0 nM Gef.) [8]: 1.04
rAVERAGE (100 nM/0 nM Gef.) [8]: 1.10
rAVERAGE (1000 nM/0 nM Gef.) [8]: 1.01
rAVERAGE (10000 nM/0 nM Gef.) [8]: 0.77
